Reference: patent publication US8541576B2, “Substituted pyrazolo-quinazoline derivatives as kinase inhibitors” (Nerviano Medical Sciences SRL, priority 2010, dated 2013)

Tests used:
[1] = system: MV-4-11 (biphenotypic B myelomonocytic leukemia) cells; test: In vitro cell proliferation assay (CellTiter-Glo); assay type: cell-based; settings: Homo sapiens, MV4-11, antiproliferative activity, 72 hours
Description: In Vitro Cell Proliferation Assay:
MV-4-11 (biphenotypic B myelomonocytic leukemia) cells (1250 cells/well) were seeded in white 384 well-plates in complete medium (RPMI 1640 or EMEM plus 10% Fetal bovine serum) and treated with compounds dissolved in 0.1% DMSO, 24 h after seeding. The cells were incubated at 37° C. and 5% CO2 and after 72 hours the plates were processed using CellTiter-Glo® assay (Promega) following the manufacturer's instruction. CellTiter-Glo® is a homogenous method based on the quantification of the ATP present, an indicator of metabolically active cells. ATP is quantified using a system based on luciferase and D-luciferin resulting into light generation. The luminescent signal is proportional to the number of cells present in culture.
Briefly 25 μl/well reagent solution was added to each wells and after 5 minutes shacking microplates were red by Envision® (PerkinElmer) luminometer. The luminescent signal was proportional to the number of cells present in culture.
Inhibitory activity was evaluated comparing treated versus control data using Assay Explorer (MDL) program. IC50 was calculated using sigmoidal interpolation curve.

Full-length human PIM-1 = target: T1, Full-length human PIM-1 (Homo sapiens, UniProt P11309); test: Biochemical assay for inhibitors of PIM-1 kinase activity (trans-phosphorylation, Dowex resin, 33P-ATP); settings: ATP 200 μM, enzyme 1 nM, Aktide 25 μM
T1 construct: Full-length human PIM-1 was expressed and purified; made in house
T1 sequence (P11309 whole entry): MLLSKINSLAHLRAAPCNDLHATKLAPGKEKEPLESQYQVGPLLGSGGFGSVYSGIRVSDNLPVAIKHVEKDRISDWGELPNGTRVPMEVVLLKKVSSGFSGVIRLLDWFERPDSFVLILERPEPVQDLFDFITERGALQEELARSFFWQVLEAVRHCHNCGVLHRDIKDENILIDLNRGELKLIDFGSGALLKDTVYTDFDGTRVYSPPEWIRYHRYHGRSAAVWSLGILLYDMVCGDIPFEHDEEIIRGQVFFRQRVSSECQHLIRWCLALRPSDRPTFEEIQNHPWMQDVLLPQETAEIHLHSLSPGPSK
Description: Biochemical assay for inhibitors of PIM-1 kinase activity
The inhibitory activity of putative kinase inhibitors and the potency of selected compounds were determined using a trans-phosphorylation assay.
Specific peptide or protein substrates are trans-phosphorylated by their specific ser-thr or tyr kinase in the presence of ATP traced with ^33P-γ-ATP, and in the presence of their own optimal buffer and cofactors.
At the end of the phosphorylation reaction, more than 98% unlabeled ATP and radioactive ATP is captured by an excess of the ion exchange Dowex® resin; the resin then settles down to the bottom of the reaction plate by gravity.
Supernatant is subsequently withdrawn and transferred into a counting plate, then evaluated by β-counting.
The buffer for PIM-1 assay was composed of HEPES 50 mM, at pH 7.5, with 10 mM MgCl2, 1 mM DTT, 3 μM NaVO3, and 0.2 mg/ml BSA
Full-length human PIM-1 was expressed and purified as described in Bullock A N, et al., J. Biol. Chem. 2005, 280, 41675-82.
1.7 μM PIM1 was incubated 1 hour RT at 28° C. in the presence of 125 μM ATP
ATP concentration: 200 μM
Enzyme concentration: 1 nM
Substrate concentration Aktide (Chemical Abstract Service Registry Number 324029-01-8): 25 μM
The test mix consisted of:
1) 3× Enzyme mix (done in Kinase Buffer 3×), 5 μL/well
2) 3× substrate and ATP mix (done in ddH2O), together with ^33P-γ-ATP, 5 μL/well
3) 3× test compounds (diluted into ddH2O—3% DMSO)-5 μL/well
For IC50 determination, test compounds are received as a 1 mM solution in 100% DMSO and distributed into 96-well plates: compounds are then plated into the first column of a new 96-well plate (A1 to G1), 100 μl/well.
An automated station (Biomek FX®, Beckman) is used for serial dilutions, producing 1:3 dilutions in 100% DMSO, from line A1 to A10, for all the compounds in the column. Moreover, 4-5 copies of daughter plates are prepared by reformatting 5 μL of this first set of 100% DMSO dilution plates into 384-deep well plates: one copy of these serial dilution plates with the test compounds is thawed on the day of study, reconstituted at the working concentration (3-fold the final concentration) with 162 μL/well of water and used for IC50 determination assays. In a standard experiment, the highest concentration (3×) of compounds is typically 30 μM, while the lowest one is typically 1.5 nM.
Each 384-well plate generates at least one curve of the standard inhibitor staurosporine and reference wells (total enzyme activity vs. no enzymatic activity) for evaluation of Z′ and signal to background (S/B) ratio.
384-well plates, V bottom (test plates) are prepared with 5 μl of compound diluted as previously described (3×) and then placed onto a PlateTrak® 12 robotized station (Perkin Elmer; the robot has one 384-tip pipetting head for assay start, plus one 96-tip head for dispensing resin) together with one reservoir for Enzyme mix (3×) and one for ATP mix (3×).
Data are analyzed by an internally customized version of the “Assay Explorer®” SW package, which provides sigmoidal fitting of the ten-dilution curves for IC50 determination in secondary assay/hit confirmation routines.

Full-length human PIM-2 = target: T2, Full-length human PIM-2 (Homo sapiens, UniProt Q9P1W9); test: PIM-2 kinase inhibition assay: Dowex technique; assay type: biochemical; settings: ATP 4 μM, enzyme 1.5 nM, Aktide 5 μM
T2 construct: Full-length human PIM-2 was expressed and purified; made in house
T2 sequence (Q9P1W9 whole entry): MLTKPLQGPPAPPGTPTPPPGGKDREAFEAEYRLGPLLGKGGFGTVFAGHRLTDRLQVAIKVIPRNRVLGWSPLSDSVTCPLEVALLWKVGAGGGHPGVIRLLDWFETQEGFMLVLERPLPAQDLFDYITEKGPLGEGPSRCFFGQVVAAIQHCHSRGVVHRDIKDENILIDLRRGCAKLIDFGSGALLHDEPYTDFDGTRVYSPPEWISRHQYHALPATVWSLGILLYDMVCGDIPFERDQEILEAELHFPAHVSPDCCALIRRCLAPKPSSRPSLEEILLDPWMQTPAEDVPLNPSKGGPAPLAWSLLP
Description: Method for PIM-2 Kinase Inhibition Assay: Dowex Technique
The buffer for PIM-2 assay was composed of HEPES 50 mM, at pH 7.5, with 1 mM MgCl2, 1 mM DTT, 3 μM Na3VO4, and 0.2 mg/ml BSA
Full-length human PIM-2 was expressed and purified as described in Fedorov O, et al. (2007) PNAS 104, 51, 20523-28.
Assay Conditions (Final Concentrations):
Enzyme concentration=1.5 nM
Aktide substrate (Chemical Abstract Service Registry Number 324029-01-8)=5 μM
See above: same procedure as described for PIM-1.

IC50 (Full-length human PIM-1) [nM] | IC50 (Full-length human PIM-2) [nM] | Compound | IC50 [1] [nM]
4120 | > 1000 | CC(=O)c1cc(N2CCN(C)CC2)ccc1Oc1ncc2ccc3c(C(N)=O)nn(C)c3c2n1 [Compound 37, 8-[2-acetyl-4-(4-methylpiperazin-1-yl)phenoxy]-1-methyl-1H-pyrazolo[4,3-h]quinazoline-3-carboxamide] | –
21 | 2400 | CN1CCN(c2ccc(Oc3ncc4ccc5c(C(N)=O)nn(C)c5c4n3)c(Br)c2)CC1 [Compound 29, 8-[2-bromo-4-(4-methylpiperazin-1-yl)phenoxy]-1-methyl-1H-pyrazolo[4,3-h]quinazoline-3-carboxamide] | 758
116 | 694 | CN1CCN(c2ccc(Oc3ncc4ccc5c(C(N)=O)nn(C)c5c4n3)c(F)c2)CC1 [Compound 36, 8-[2-fluoro-4-(4-methylpiperazin-1-yl)phenoxy]-1-methyl-1H-pyrazolo[4,3-h]quinazoline-3-carboxamide] | 940
20 | 527 | CC(=O)c1cc(N2CCNCC2)ccc1Oc1ncc2ccc3c(C(N)=O)nn(C)c3c2n1 [Compound 38, 8-[2-acetyl-4-(piperazin-1-yl)phenoxy]-1-methyl-1H-pyrazolo[4,3-h]quinazoline-3-carboxamide] | 308
776 | > 10000 | CN1CCN(c2ccc(Oc3ncc4c(n3)-c3c(c(C(N)=O)nn3C)CC4)cc2)CC1 [Compound 25, 1-methyl-8-[4-(4-methylpiperazin-1-yl)phenoxy]-4,5-dihydro-1H-pyrazolo[4,3-h]quinazoline-3-carboxamide] | > 10000
33 | 861 | CN1CCN(c2ccc(Oc3ncc4ccc5c(C(N)=O)nn(C)c5c4n3)cc2)CC1 [Compound 26, 1-methyl-8-[4-(4-methylpiperazin-1-yl)phenoxy]-1H-pyrazolo[4,3-h]quinazoline-3-carboxamide] | 520
270 | 313 | CSc1ncc2c(n1)-c1c(c(C(N)=O)nn1C1CCNCC1)CC2 [Compound 72, 8-(methylsulfanyl)-1-(piperidin-4-yl)-4,5-dihydro-1H-pyrazolo[4,3-h]quinazoline-3-carboxamide] | 1780
4 | 498 | Cn1nc(C(N)=O)c2ccc3cnc(Oc4ccc(N5CCNCC5)cc4)nc3c21 [Compound 27, 1-methyl-8-[4-(piperazin-1-yl)phenoxy]-1H-pyrazolo[4,3-h]quinazoline-3-carboxamide] | 308
123 | 888 | CSc1ncc2ccc3c(C(N)=O)nn(C)c3c2n1 [Compound 87, 1-methyl-8-(methylsulfanyl)-1H-pyrazolo[4,3-h]quinazoline-3-carboxamide] | 1940
400 | 210 | NC(=O)c1nn(C2CCC(N)CC2)c2c1ccc1cnc(-c3ccccc3)nc12 (centres unmarked) [Compound 111, 1-(4-aminocyclohexyl)-8-phenyl-1H-pyrazolo[4,3-h]quinazoline-3-carboxamide] | –
> 10000 | > 10000 | Cn1nc(C(N)=O)c2c1-c1nc(N3CCCCC3)ncc1CC2 [Ref. Compound 1, 1-methyl-8-(piperidin-1-yl)-4,5-dihydro-1H-pyrazolo[4,3-h]quinazoline-3-carboxamide, reference compound] | –
1010 | > 10000 | CSc1ncc2c(n1)-c1c(c(C(N)=O)nn1C)CC2 [Ref. Compound 2, 1-methyl-8-(methylsulfanyl)-4,5-dihydro-1H-pyrazolo[4,3-h]quinazoline-3-carboxamide, reference compound] | –

Second part, the compound before the results:

Compound | IC50 (Full-length human PIM-1) [nM] | IC50 (Full-length human PIM-2) [nM] | IC50 [1] [nM]
CN1CCN(c2ccc(Oc3ncc4ccc5c(C(N)=O)nn(CCO)c5c4n3)cc2)CC1 [Compound 46, 1-(2-hydroxyethyl)-8-[4-(4-methylpiperazin-1-yl)phenoxy]-1H-pyrazolo[4,3-h]quinazoline-3-carboxamide] | 81 | 1300 | 673
CSc1ncc2ccc3c(C(N)=O)nn(C4CCOCC4)c3c2n1 [Compound 104, 8-(methylsulfanyl)-1-(tetrahydro-2H-pyran-4-yl)-1H-pyrazolo[4,3-h]quinazoline-3-carboxamide] | 14 | 35 | 185
CSc1ncc2ccc3c(C(N)=O)nn(CC4CCCNC4)c3c2n1 (centres unmarked) [Compound 94, 8-(methylsulfanyl)-1-(piperidin-3-ylmethyl)-1H-pyrazolo[4,3-h]quinazoline-3-carboxamide] | 80 | 311 | 534
CSc1ncc2ccc3c(C(N)=O)nn(CCN)c3c2n1 [Compound 15, 1-(2-aminoethyl)-8-(methylsulfanyl)-1H-pyrazolo[4,3-h]quinazoline-3-carboxamide] | 143 | 282 | 1430
CSc1ncc2ccc3c(C(N)=O)nn([C@@H]4C[C@H]5CC[C@@H](C4)N5)c3c2n1 [Compound 99, 1-[(3-exo)-8-azabicyclo[3.2.1]oct-3-yl]-8-(methylsulfanyl)-1H-pyrazolo[4,3-h]quinazoline-3-carboxamide] | 16 | 33 | 102
CSc1ncc2ccc3c(C(N)=O)nn([C@H]4C[C@H](CO)C4)c3c2n1 [Compound 105, 1-[trans-3-(hydroxymethyl)cyclobutyl]-8-(methylsulfanyl)-1H-pyrazolo[4,3-h]quinazoline-3-carboxamide] | 3 | 14 | 16.8
CSc1ncc2ccc3c(C(N)=O)nn(C(C)CCN)c3c2n1 (centres unmarked) [Compound 102, 1-(4-aminobutan-2-yl)-8-(methylsulfanyl)-1H-pyrazolo[4,3-h]quinazoline-3-carboxamide] | 1 | 1 | 35
CSc1ncc2ccc3c(C(N)=O)nn([C@H]4C[C@@H](CO)C4)c3c2n1 [Compound 106, 1-[cis-3-(hydroxymethyl)cyclobutyl]-8-(methylsulfanyl)-1H-pyrazolo[4,3-h]quinazoline-3-carboxamide] | 3 | 13 | 21
CSc1ncc2ccc3c(C(N)=O)nn(CCO)c3c2n1 [Compound 1, 1-(2-hydroxyethyl)-8-(methylsulfanyl)-1H-pyrazolo[4,3-h]quinazoline-3-carboxamide] | 50 | 221 | 992
COc1ncc2ccc3c(C(N)=O)nn(C4CCNCC4)c3c2n1 [Compound 97, 8-methoxy-1-(piperidin-4-yl)-1H-pyrazolo[4,3-h]quinazoline-3-carboxamide] | 154 | 271 | 294
